In PubChem BioAssay (NCI):
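Where inhibition never reached the appropriate level, the endpoint shown equals the highest concentration tested. Otherwise, values were interpolated linearly from a five-concentration, 48-hour dose response in 96-well plates. GI50 marks 50% less growth. Definition used: TGI = concentration required for complete inhibition of growth.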

What was measured:
Experiment in all cases: NCI tumour cell line growth inhibition, 48 h
HS 578T breast = system: HS 578T breast
DLD-1 colon = system: DLD-1 colon
HOP-18 NSCLC = system: HOP-18 NSCLC
KM20L2 colon = system: KM20L2 colon
M19-MEL melanoma = system: M19-MEL melanoma
LXFL 529 NSCLC = system: LXFL 529 NSCLC
XF 498 CNS = system: XF 498 CNS
MDA-N = system: MDA-N
RXF-631 renal = system: RXF-631 renal

Structure (SMILES)	GI50 (HS 578T breast) [µM]	TGI (HS 578T breast) [µM]	TGI (DLD-1 colon) [µM]	TGI (KM20L2 colon) [µM]	TGI (LXFL 529 NSCLC) [µM]	further results
Cn1cc(C2=C(c3cn(C)c4c(N)cccc34)C(=O)NC2=O)c2ccccc21	0.618	19	–	–	–	–
Cn1cc(C2=C(c3cn(CCCN=C(N)N)c4ccccc34)C(=O)NC2=O)c2ccccc21	> 25	> 25	–	–	–	–
CCOC(=O)[C@H]1Nc2ccc(C)cc2C2c3ccccc3CC21 (stereo partly specified)	–	–	> 100	> 100	> 100	TGI (HOP-18 NSCLC): > 100 µM; TGI (M19-MEL melanoma): > 100 µM
COc1cc2c(/C=C3/C(=O)Nc4cccc(Cl)c43)c(Cl)n(Cc3ccccc3)c2cc1C	4.34	66.5	–	–	–	–
COc1ccc(C2CC(=O)c3c(O)c(OC)c(OC)c(OC)c3O2)c(O)c1 (stereo unspecified)	0.201	48.7	–	–	–	–
O=C(/C=C/c1ccccc1Cl)c1ccccc1Cl	–	–	33.4	33.3	32	TGI (HOP-18 NSCLC): 89.2 µM; TGI (M19-MEL melanoma): 61 µM
COc1cc([C@@H]2c3cc4c(cc3C(O[C@@H]3O[C@@H]5CO[C@@H](c6cccs6)OC5[C@H](O)[C@H]3O)C3COC(=O)[C@@H]32)OCO4)cc(OC)c1O (stereo partly specified)	0.241	5.03	–	–	–	–
NC(N)=NC(N)=Nc1cc2ccccc2c2ccccc12	11.5	33.8	–	–	–	–
CCN(CC)C(=O)C/C(C)=N/NC(=O)c1ccncc1	–	–	> 100	> 100	> 100	TGI (XF 498 CNS): > 100 µM
COc1ccc(-c2cc3c(nn2)-c2ccccc2C3=O)cc1	> 100	> 100	–	–	–	TGI (MDA-N): > 10 µM
COc1ccc(C(=O)O)c(Cc2cccc3ccccc23)c1	–	–	> 100	> 100	> 100	TGI (RXF-631 renal): > 100 µM; TGI (HOP-18 NSCLC): > 100 µM; TGI (M19-MEL melanoma): > 100 µM
COc1cccc(N=Cc2c3ccccc3c(=O)n3c2oc2ccccc23)c1	34.9	> 100	–	–	–	–
COc1cc(Cn2c(-c3ccccc3)cc3c2-c2oncc2CC3)cc(OC)c1OC	0.51	> 100	–	–	–	–
NCCCCn1c2c(c3ccccc3c1=O)C(=O)c1ccccc1-2	0.538	4.75	–	–	–	–
C#CC[C@]12CC(=O)CC[C@H]1CC(=O)C2	–	–	> 100	> 100	> 100	TGI (RXF-631 renal): > 100 µM; TGI (HOP-18 NSCLC): > 100 µM; TGI (M19-MEL melanoma): > 100 µM
COc1ccc(C2CC(=O)c3c(OC)cc(OC)cc3O2)cc1 (stereo unspecified)	> 100	> 100	–	–	–	–
COc1ccc(-n2cc(-c3cc(OC)c(OC)c(OC)c3)[nH]c2=S)cc1OC	> 100	> 100	–	–	–	–
CC(=O)SCCC1c2[nH]c3ccccc3c2CCN1O (stereo unspecified)	–	–	> 100	> 100	> 100	TGI (HOP-18 NSCLC): > 100 µM; TGI (M19-MEL melanoma): > 100 µM
CN(C)C(=S)SN(C)C(=O)Nc1ccccc1	–	> 100	> 100	> 100	> 100	TGI (MDA-N): 43.3 µM; TGI (RXF-631 renal): > 100 µM; TGI (M19-MEL melanoma): > 31.6 µM
O=C(C[C@@H](C(=O)NCc1cccc(C(F)(F)F)c1)N1C(=O)[C@@H](N2C(=O)OC[C@@H]2c2ccccc2)[C@H]1/C=C/c1ccccc1)NC1CCN(Cc2ccccc2)CC1	10.3	29.6	–	–	–	–
CC(=O)[O][Hg][c]1c(C)c(C)c(C)c(C)c1C	0.899	3.52	–	–	–	GI50 (MDA-N): 1.37 µM; TGI (MDA-N): 2.69 µM
COc1ccc2cc(C(=O)/C=C/c3cccc(OC)c3OC)ccc2c1	25.5	73.9	–	–	–	–
O=[N+]([O-])c1ccc2nnnn2c1	–	> 100	–	–	–	–
COc1cc([N+](=O)[O-])ccc1NC(=O)C(F)(F)F	–	> 100	–	–	–	TGI (MDA-N): > 100 µM
O=C(NC1CCCCCC1)C1C(=O)N(C2CCCCCC2)C(=O)/C1=N\O (stereo unspecified)	–	–	> 100	49	> 100	TGI (HOP-18 NSCLC): > 100 µM; TGI (M19-MEL melanoma): 75.6 µM
Cn1cc(-c2csc(-c3cccc(F)c3)n2)c2cccnc21	19.3	45.5	–	–	–	–
CC(C)CC(N)C(=O)O (stereo unspecified)	–	> 100	–	–	–	TGI (MDA-N): > 100 µM
Cc1cc(C)cc(Nc2cc(C)nc3nc(C(F)(F)F)nn23)c1	34.9	> 100	–	–	–	–
COc1cc2c3c(n(CCCCl)c(=O)c2cc1OC)-c1ccccc1C3=O	23.5	> 100	–	–	–	–
Cc1ccc(C(=O)/C=C/c2ccccc2O)c(C)c1	–	–	> 100	> 100	> 100	TGI (M19-MEL melanoma): 3.07 µM
